Values quoted from earlier work in patent US7022698B2, “Pharmaceutical compositions containing new polymorphic forms of olanzapine and uses thereof” (U & I Pharmaceuticals, Ltd., priority 1999, dated 2006).
Like-named read-outs stand apart in the source and are kept apart here.

How the values were obtained:
[1] = tested on: schizophrenia and schizoaffecive and schizophreniform disorders; conditions: for Montgomery-Asberg Depression Rating Scale (MADRS) total score, baseline to endpoint decline: 6-week trial, p=0.001
[2] = tested on: psychotic mood disorders patients and schizophrenic patients
[3] = tested on: patients with Alzheimer's disease (AD)
[4] = tested on: inpatients with a diagnosis of psychotic disorders
[5] = tested on: patients with Acute Mania; conditions: 5–20 mg/day
[6] = tested on: serotonin (5-HT) receptors
bipolar type I patients = conditions: mean dose 13.8 mg/day
[7] = tested on: muscarinic cholinergic receptor
[8] = tested on: inpatients with psychotic depression
[9] = tested on: dopamine receptors (D1 to D5)
[10] = tested on: patients with schizophrenia; conditions: 10 mg/day, in comparison with olanzapine 1 mg/day or placebo

O=C(CCCN1CCC(O)(c2ccc(Cl)cc2)CC1)c1ccc(F)cc1 [haloperidol]
Montgomery-Asberg Depression Rating Scale (MADRS) total score, baseline to endpoint decline [1]: 3 point

Cc1cc2c(s1)Nc1ccccc1N=C2N1CCN(C)CC1 [olanzapine, 2-methyl-4-(4-methyl-1-piperazinyl)-10H-thieno-[2,3b][1,5] benzodiazepine]
K Axis V subscale scores, baseline to follow-up ([2]; psychotic mood disorders group, psychological impairment, violence, and social skills subscales): statistically significant change
patients remaining hospitalized at follow-up ([2]; psychotic mood disorders patient group (24/32)): Seventy-five
change on the CGI and GAF-EQ ([2]; psychotic mood disorders patients (N=32) and schizophrenic patients (N=18) who continued olanzapine): statistically significant change toward improvement
K Axis V subscale scores, baseline to follow-up ([2]; schizophrenic group, only on the violence subscale): significant change in score only on the violence subscale
patients remaining hospitalized at follow-up ([2]; schizophrenic patients (18/18)): 100%
efficacy in reducing psychotic symptoms, parent study ([3]; 5-mg/day dose): most efficacious
safety, parent study ([3]; 5-mg/day dose): safest
efficacy in reducing psychotic symptoms, parent study ([3]; 10-mg/day dose, relative to placebo): significant efficacy
expression of psychotic symptoms, parent study ([3]; 15-mg/day dose): failed to separate from the placebo group
safety, parent study ([3]; 15-mg/day dose): less tolerated safety profile
emergence of psychotic symptoms compared to placebo ([3]; possible AD with agitation/aggression and no or minimal hallucinations and/or delusions): significantly lower emergence of psychotic symptoms
overall response rate ([4]; all patients): 62%
response rate ([4]; bipolar disorder patients): 83%
Montgomery-Asberg Depression Rating Scale (MADRS) total score, baseline to endpoint decline [1]: 6 point
reduction of the MADRS scores ([1]; subanalysis, schizoaffective patients currently depressed, p=0.002): superior to haloperidol
decrease of Brief Psychiatric Rating Scale (BPRS) mania score ([1]; subanalysis, schizoaffective patients currently manic, p=0.25): as effective as haloperidol
percentage of patients who discontinued treatment because of lack of efficacy ([5]; p=0.02 vs placebo): 28.6%
patients with an improvement of 50% or more in Young Mania Rating Scale total score ([5]; responder analysis): 48.6%
affinity for serotonergic receptors [6]: nanomolar affinity
inhibition of 5-HT receptors ([6]; 5-HT2A, 5-HT2B, 5-HT2C, and 5-HT6 receptors): potent inhibitor
HAM-D score at baseline (bipolar type I patients; 113 patients): 12.2
YMRS score at baseline (bipolar type I patients; 113 patients): 25.5
HAM-D score on follow-up (bipolar type I patients; average 6.7 months, p<0.001): 6.5
YMRS score on follow-up (bipolar type I patients; average 6.7 months, p<0.001): 7.5
EPS (bipolar type I patients): Few EPS were noted
affinity for muscarinic receptors [7]: nanomolar affinity
inhibition of muscarinic cholinergic receptor ([7]; all five subtypes): potent inhibitor
response rate [8]: 67%
affinity for α1-adrenergic receptors (α1-adrenergic receptors): nanomolar affinity
inhibition of α-adrenergic receptor (α1-adrenergic receptors): potent inhibitor
mesolimbic and mesocortical selectivity: mesolimbic and mesocortical selectivity
affinity for dopaminic receptors [9]: nanomolar affinity
binding selectivity among dopamine receptors ([9]; D1 to D5): relatively non-selective binding
Hamilton Rating Scale for Depression scores [10]: significant reduction
